Laboratory results from patent publication US3976762A (priority 1974, dated 1976).
Read-outs that look alike come from different tables or passages of the source.

Settings: mouse, in vivo; for Urine and Feces, percent of total injected radioactivity: iv

| Substance | Localization / excretion of the complex (in words) | Urine and Feces, percent of total injected radioactivity (0 h) | Urine and Feces, percent of total injected radioactivity (0.5 h) | Urine and Feces, percent of total injected radioactivity (1 h) | Urine and Feces, percent of total injected radioactivity (2 h) | Urine and Feces, percent of total injected radioactivity (4 h) | Urine and Feces, percent of total injected radioactivity (24 h) |
| --- | --- | --- | --- | --- | --- | --- | --- |
| Tc-99m-1-aminobutylphosphonic acid | rapidly excreted via the kidney | 0.0 | 74.2 | 85.0 | 90.7 | 86.6 |  |
| Tc-99m-1,5-diaminopentylphosphonic acid | high uptake of the complex by the kidney without rapid excretion | 0.0 | 47.3 | 55.0 | 61.3 |  | 83.2 |
